In US8940748B2, “Iminothiadiazine dioxide compounds as BACE inhibitors, compositions, and their use” (Merck Sharp & Dohme Corp., priority 2009, dated 2015):

How the values were obtained:
[1] = system: endogenous rat Aβ1-40 (Aβ40) in cortex; experiment: Cortical Aβ40 in rats after oral dosing (Luminex-based immunodetection); assay type: in vivo; conditions: rats, 3 h after a 10 mg/kg oral dose, vs vehicle cohort, read-out: Change in rat cortex Aβ40
Protocol: The following procedures were used.
Male CD rats (˜100 g; Crl:CD(SD); Charles River Laboratories, Kingston, N.Y.) were group housed and acclimated to the vivarium for 5-7 days prior to use in a study. Compounds were formulated in 20% hydroxypropyl-β-cyclodextrin and administered orally with a dosing volume of 5 ml/kg for rats. Three h after drug administration, rats were euthanized with excess CO2. The brain was removed from the skull and immediately frozen on dry ice. All tissues were stored at −70° C. until Aβ quantification.
Ab585 was labeled with biotin (b-Ab585) by first dialyzing the antibody sample extensively versus PBS (pH 7.8) to remove impurities, followed by dilution to between 1 and 2 mg/mL protein concentration. EZ-Link Sulfo-NHS-LC-Biotin (Pierce) was dissolved in PBS (pH 7.8) at a concentration of 1 mg/mL immediately prior to use. Ab585 was labeled with EZ-Link Sulfo-NHS-LC-biotin using a 10:1 biotin:antibody ratio by incubation at room temperature for 1 hour. The labeling reaction was quenched by addition of 1.0 M glycine to a final concentration of 0.1 M followed by 10 minute incubation at room temperature. Glycine was removed by extensive dialysis versus PBS.
The antibody was coupled to the beads using the Bio-Plex Amine Coupling Kit (Bio-Rad) as per the manufacturer's recommendations.
Rat cortex Aβ40 levels were measured from guanidine HCl extracts of individual rat cortices using a Luminex-based immunodetection assay. Rat brains were thawed briefly at 37° C. and both mid- and hindbrain regions were removed. The remaining material, consisting primarily of cortex (˜800 mg) was carried through the guanidine extraction procedure. Cortices were added to a 2 ml BioPur tube (Eppendorf) along with a 6.35 mm chrome-coated steel ball and 1.0 ml of sucrose homogenization buffer (20 mM HEPES [pH 7.5], 50 mM KCl, 50 mM sucrose, 2 mM EDTA, 2 mM EGTA supplemented with complete protease inhibitors [Roche, EDTA-free]). Samples were then homogenized by agitation for 1.5 min at 30 cycles/sec in a MM300 tissue mixer (Retsch®). The resulting cortical homogenate was extracted with guanidine-HCl by mixing 67 μl of homogenate with 133 μl of 5 M Guanidine HCl, 50 mM Tris HCl (pH 8.0). To maximize the efficiency of Aβ extraction, samples were vortexed and then sonicated for 2 minutes in an ice bath using an Ultrasonics XL cup horn sonicator at a power setting of 8 (Heat Systems, Inc.). Insoluble material was removed by ultracentrifugation using a using a TLA-55 rotor in a TL-100 benchtop centrifuge (Beckman) at 100,000×g for 30 minutes. The resulting supernatant was then either diluted 1:10 in 5 M guanidine HCl, 0.05 M Tris HCl (pH 8.0) for protein analysis (BCA protein assay, Pierce Biochemicals) or assayed neat for Aβ40 levels. The Luminex rodent Aβ40 assay was performed as follows. First, 96 well filter binding plates (Millipore, catalogue # MSBVN12) were wetted with 100 μl of 1×LAβ40 buffer (0.05 M HEPES [pH 7.5], 0.2% BSA, 0.2% Tween-20, 0.15 M NaCl) by vacuum filtration on a Millipore 96-well manifold. The plate bottom was sealed and 100 μl of 1×LAβ40 buffer was added to each well followed by addition of 50 μl each of G2-10:COOH beads (1000 beads/well) and 50 μl b-Ab585 at 0.5 μg/ml in 1×LAβ40 buffer. Guanidine HCl was added to synthetic rodent Aβ40 standards in order to control for the effect of guanidine in brain extracts on the assay performance. Ten microliters of cortical extract, rodent Aβ40 standards or cortical extract from amyloid precursor protein knockout mice (to define background immunoreactivity) was added to each well. Plates were covered and incubated overnight at 4° C. Following the incubation, wells were cleared by vacuum and washed twice with 100 μl of 1×LAβ40 buffer on a Millipore manifold.

[2] = molecular target: purified human autoBACE-2 (Homo sapiens (Human), UniProt Q9Y5Z0); experiment: BACE-2 assay (BACE-HTRF, time-resolved endpoint proteolysis); assay type: biochemical; conditions: Ki calculated from IC50 using the Cheng-Prusoff equation
Protocol: Inhibitor IC50s at purified human autoBACE-2 were determined in a time-resolved endpoint proteolysis assay that measures hydrolysis of the QSY7-[sequence]-Eu-amide FRET peptide substrate (BACE-HTRF assay). […] DMSO was present at 5% final concentration in the assay. Following laser excitation of sample wells at 320 nm, the fluorescence signal at 620 nm was collected for 400 ms following a 50 μs delay on a RUBYstar HTRF plate reader (BMG Labtechnologies). Raw RFU data was normalized to maximum (1.0 nM BACE/DMSO) and minimum (no enzyme/DMSO) RFU values. […] The Ki values were calculated from the IC50 using the Cheng-Prusoff equation.

[3] = system: P-gp; experiment: Caco-2 bi-directional permeability; assay type: in vitro ADME; conditions: human, Caco-2
Protocol: (§1) The bi-directional permeability with efflux potential of selected compounds of the invention vs. otherwise structurally identical iminopyrimidinones (collectively referred to as test compounds, shown in the table below) were assessed using Caco-2 cell line. The Caco-2 cells were maintained in DMEM (Dulbecco's Modified Eagle Medium) containing 10% fetal bovine serum, 1% non-essential amino acids, 2 mM L-glutamine, and 1% penicillin-streptomycin in an incubator at ˜37° C. in an atmosphere of 5% CO2 and about 90% relative humidity. The cell culture medium was changed three times weekly. Caco-2 cell monolayers were grown on polyethylene terephthalate filters using 24-well BD Falcon™ Cell Culture Insert Plates (0.33 cm^2 insert area, 1 μm pore size; BD BioSciences, Bedford, Mass.). The culture medium of the plate was changed every other day until used for the transport experiment (21-28 days post seeding).
(§2) The transport buffer (TM) was Hank's balanced salt solution (HBSS) with 10 mM HEPES and 25 mM glucose (pH 7.4) for dosing and TM with 4% bovine serum albumin for receiver (pH 7.4). The bi-directional permeability of the test compounds were tested at concentrations of 1, 10 and 100 μM was measured in triplicate with 2-hr incubation. The cell monolayer integrity was monitored with pre- and post-experimental trans-epithelial electrical resistance and post-experimental Lucifer Yellow (LY) permeability with 1 hr incubation.
(§3) The apparent permeability, recovery and efflux ratio values were calculated using the following equations:
(§4) where, • dCR/dt: The slope of the accumulative concentration in the receiver compartment versus time incubation (μM·s^−1) • C0hr: Donor concentration (μM) immediately after dosing • CD, final: Donor concentration (μM) at the end of incubation • S: Membrane surface area (cm^2) • VD: Volume of donor compartment (mL) • VR: Volume of receiver compartment (mL) • Papp-BLtoAP: Permeability from basolateral (BL) to apical (AP) transport

[4] = molecular target: soluble human BACE1 catalytic domain (Homo sapiens (Human), UniProt P56817); experiment: BACE1 HTRF FRET assay; assay type: biochemical; conditions: Ki calculated from IC50 using the Cheng-Prusoff equation; read-out: BACE-1 Ki
[5] = Solution stability, Example B (50 mM pH 7.4 phosphate buffer, 25° C., LC/MS); assay type: physicochemical
Protocol: Stock solutions of the tested compounds were prepared by dissolving about 3 mg of each compound in 3 mL of acetonitrile. Standards for test compounds were prepared by diluting 1 mL of the stock solution with an additional 4 mL of acetonitrile. These standards were stored at 4° C. Samples were prepared by diluting 1 mL of the stock solution with 4 mL of 50 mM pH 7.4 phosphate buffer. These samples were stored at 25° C. in the absence of light. Standards and samples were analyzed by LC/MS initially and at day 1, day 4, and day 6.
Mobile phase A: 10 mM pH 5 ammonium acetate buffer:methanol (90:10)
Mobile phase B: 10 mM pH 5 ammonium acetate buffer:methanol (10:90)
Column: Zorbax SB-Phenyl 4.6×50 mm, 1.8 μm
Column temperature: 40° C.
Area % is the integration of peak from HPLC as reported by Waters Empower II software.
In the following study, the solution stability of the compound of Example 47 was measured and compared to that of Compound Y. The compound of Example 47 is an iminothiadiazine dioxide compound of the invention. Compound Y is the corresponding iminopyrimidinone compound. The structures of the compound of Example 47 and of Compound Y are shown below. Studies were performed in pH 7.4 buffer at 25° C.

[6] = Caco-2 bi-directional permeability; assay type: in vitro ADME; conditions: human, Caco-2; permeability apical to basolateral; read-out: Caco-2 AP→BL
Protocol: as §1, §2, §3, §4

[7] = Solution stability, Example A (pH 7.4 phosphate buffer/MeOH, LC/MS); assay type: physicochemical; conditions: for degredation: aqueous pH 7.4 buffer containing methanol
Protocol: A 1.05 mg/mL stock solution (5 mL) of Ex. 45 in MeOH was prepared. From the stock solution was taken out 1.25 mL and diluted to 25 mL with the addition of 23.75 mL of 10 mM phosphate buffer (pH 7.4)/MeOH (70/30 v/v). This new solution was split into three. One solution was incubated at 4° C., another incubated at 25° C. and the third incubated at 40° C. Each solution was analyzed by LC/MS after day 1, day 2 and day 6 and compared to a standard calibration curve for Ex. 45.
In the following study, the solution stability of the compound of Example 45 was measured and compared to that of Compound Z. The compound of Example 45 is an iminothiadiazine dioxide compound of the invention. Compound Z is the corresponding iminopyrimidinone compound. The structures of the compound of Example 45 and of Compound Z are shown below. Studies were performed in aqueous pH 7.4 buffer containing methanol at 4° C., 25° C. and 40° C.

[8] = Standard (in acetonitrile, stored at 4° C.)
[9] = pH 7.4, 40° C., last column without time heading

soluble human BACE1 catalytic domain, sequence (P56817 75-416): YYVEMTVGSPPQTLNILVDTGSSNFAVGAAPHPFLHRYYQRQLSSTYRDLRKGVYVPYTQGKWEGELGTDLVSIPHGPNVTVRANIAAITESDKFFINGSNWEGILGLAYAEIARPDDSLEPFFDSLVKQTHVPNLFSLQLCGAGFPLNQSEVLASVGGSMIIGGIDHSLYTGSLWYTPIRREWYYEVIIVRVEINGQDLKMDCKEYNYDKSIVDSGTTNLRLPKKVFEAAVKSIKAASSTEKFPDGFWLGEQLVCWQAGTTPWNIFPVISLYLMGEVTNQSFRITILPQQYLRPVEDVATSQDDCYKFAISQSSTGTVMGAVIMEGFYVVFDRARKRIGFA
purified human autoBACE-2, sequence (Q9Y5Z0 63-473 limits assumed): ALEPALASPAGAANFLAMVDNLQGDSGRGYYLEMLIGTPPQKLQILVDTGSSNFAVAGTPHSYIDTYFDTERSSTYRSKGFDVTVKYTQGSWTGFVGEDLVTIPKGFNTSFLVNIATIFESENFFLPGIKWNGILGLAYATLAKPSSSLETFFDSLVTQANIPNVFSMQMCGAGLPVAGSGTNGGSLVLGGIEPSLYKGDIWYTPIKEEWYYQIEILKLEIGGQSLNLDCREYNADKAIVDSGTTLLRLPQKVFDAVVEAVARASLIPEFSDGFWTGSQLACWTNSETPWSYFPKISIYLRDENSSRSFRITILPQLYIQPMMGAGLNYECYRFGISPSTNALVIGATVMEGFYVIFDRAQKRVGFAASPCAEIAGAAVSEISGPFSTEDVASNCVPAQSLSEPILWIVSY

Cc1cnc(C(=O)Nc2ccc(F)c([C@]3(C)CS(=O)(=O)N(C)C(=N)N3)c2)cn1 [Example 36]
change in vivo at 10 mg/kg [1]: -25%
Ki [2]: 4.85 nM
efflux ratio at 2 h [3]: 3.3
Ki [4]: 10 nM

COc1cnc(C(=O)Nc2cc(F)c(F)c([C@]3(C)CS(=O)(=O)N(C)C(=N)N3)c2)cn1 [Example 40di]
change in vivo at 10 mg/kg [1]: -38%
Ki [2]: 2.15 nM
efflux ratio at 2 h [3]: 2
Ki [4]: 1.05 nM

CN1C(=N)N[C@](C)(c2cc(NC(=O)c3ccc(C(F)(F)F)cn3)ccc2F)CS1(=O)=O [Example 26]
change in vivo at 10 mg/kg [1]: -33%
Ki [2]: 2.46 nM
efflux ratio at 2 h [3]: 2.9
Ki [4]: 1.26 nM

CC#Cc1cncc(-c2csc([C@]3(C)CS(=O)(=O)N(C)C(=N)N3)c2)c1 [Example 47]
Ki [2]: ~1 nM
Area %, Day 1 (Unknown peak, RRT 1.49) ([5]; Sample at pH 7.4, 25° C.): 1.44 Area %
Area %, Day 1 (parent peak, RRT 1.00) ([5]; Sample at pH 7.4, 25° C.): 98.56 Area %
Area %, Day 4 (Unknown peak, RRT 1.49) ([5]; Sample at pH 7.4, 25° C.): 1.47 Area %
Area %, Day 4 (parent peak, RRT 1.00) ([5]; Sample at pH 7.4, 25° C.): 98.53 Area %
Area %, Day 6 (Unknown peak, RRT 1.49) ([5]; Sample at pH 7.4, 25° C.): 1.47 Area %
Area %, Day 6 (parent peak, RRT 1.00) ([5]; Sample at pH 7.4, 25° C.): 98.53 Area %
Area %, Initial (Unknown peak, RRT 1.49) ([5]; Sample at pH 7.4, 25° C.): 1.45 Area %
Area %, Initial (parent peak, RRT 1.00) ([5]; Sample at pH 7.4, 25° C.): 98.55 Area %
Area %, Day 1 (Unknown peak, RRT 1.49) [5, 8]: 1.45 Area %
Area %, Day 1 (parent peak, RRT 1.00) [5, 8]: 98.55 Area %
Area %, Day 4 (Unknown peak, RRT 1.49) [5, 8]: 1.48 Area %
Area %, Day 4 (parent peak, RRT 1.00) [5, 8]: 98.52 Area %
Area %, Day 6 (Unknown peak, RRT 1.49) [5, 8]: 1.48 Area %
Area %, Day 6 (parent peak, RRT 1.00) [5, 8]: 98.52 Area %
Area %, Initial (Unknown peak, RRT 1.49) [5, 8]: 1.47 Area %
Area %, Initial (parent peak, RRT 1.00) [5, 8]: 98.53 Area %
hydrolysis product ([5]; pH 7.4 buffer at 25° C., after 6 days): 0%
Ki [4]: ~6.5 nM

Cc1ccc(C(=O)Nc2ccc(F)c([C@]3(C)CS(=O)(=O)N(C)C(=N)N3)c2)nc1 [Example 35]
Ki [2]: 0.45 nM
efflux ratio at 2 h [3]: 2.1
Ki [4]: 3 nM

CN1C(=N)N[C@](C)(c2c(F)ccc(NC(=O)c3ccc(F)cn3)c2F)CS1(=O)=O [Example 173]
change in vivo at 10 mg/kg [1]: -27%
Papp A→B at 2 h [6]: 126 nm/s

COc1cnc(C(=O)Nc2cc(F)c(F)c([C@]3(C)CC(=O)N(C)C(=N)N3)c2)cn1 [Iminopyrimidinone 40di]
change in vivo at 10 mg/kg [1]: 5%
efflux ratio at 2 h [3]: 3.2
Papp A→B at 2 h [6]: 65 nm/s

CN1C(=N)N[C@](C)(c2cc(-c3cccc(C#N)c3)cs2)CS1(=O)=O [Example 45]
efflux ratio at 2 h [3]: 1.4
degredation ([7]; 4° C., after 6 days): 0.93%
degredation ([7]; 25° C., after 6 days): 7.4%
degredation ([7]; 40° C., after 6 days): 30.71%
Assay (Area %) ([7]; pH 7.4, 4° C., 1 day): 99.69 Area %
Assay (Area %) ([7]; pH 7.4, 4° C., 2 days): 99.04 Area %
Assay (Area %) ([7]; pH 7.4, 4° C., 6 days): 98.89 Area %
Assay (Area %) ([7]; pH 7.4, 4° C., Initial): 99.82 Area %
Assay (Area %) ([7]; pH 7.4, 25° C., 1 day): 98.45 Area %
Assay (Area %) ([7]; pH 7.4, 25° C., 2 days): 96.07 Area %
Assay (Area %) ([7]; pH 7.4, 25° C., 6 days): 92.43 Area %
Assay (Area %) ([7]; pH 7.4, 25° C., Initial): 99.82 Area %
Assay (Area %) ([7]; pH 7.4, 40° C., 1 day): 96.32 Area %
Assay (Area %) ([7]; pH 7.4, 40° C., 2 days): 89.70 Area %
Assay (Area %) ([7]; pH 7.4, 40° C., 6 days): 69.11 Area %
Assay (Area %) ([7]; pH 7.4, 40° C., Initial): 99.82 Area %
Assay (Area %), degradation symbol [7, 9]: — ((—) stands for > 20% degradation)
Ki [4]: 25.6 nM

COc1cnc(C(=O)Nc2ccc(F)c([C@]3(C)CS(=O)(=O)N(C)C(=N)N3)c2)cn1 [Example 40ai]
change in vivo at 10 mg/kg [1]: -51%
Ki [2]: 1.99 nM
efflux ratio at 2 h [3]: 1.8
Ki [4]: 1.64 nM

CN1C(=N)N[C@](C)(c2cc(-c3cccc(C#N)c3)cs2)CC1=O [Compound Z]
degredation ([7]; 4° C., after 1 day): 18.3%
degredation ([7]; 25° C., time not stated): 53.87%
degredation ([7]; 40° C., after 1 day): 79.93%
Assay (Area %) ([7]; pH 7.4, 4° C., 1 day): 69.84 Area %
Assay (Area %), degradation symbol ([7]; pH 7.4, 4° C., 2 days): — ((—) stands for > 20% degradation)
Assay (Area %), degradation symbol ([7]; pH 7.4, 4° C., 6 days): — ((—) stands for > 20% degradation)
Assay (Area %) ([7]; pH 7.4, 4° C., Initial): 88.15 Area %
Assay (Area %), degradation symbol ([7]; pH 7.4, 4° C., last column without time heading): — ((—) stands for > 20% degradation)
Assay (Area %) ([7]; pH 7.4, 25° C., 1 day): 34.28 Area %
Assay (Area %), degradation symbol ([7]; pH 7.4, 25° C., 2 days): — ((—) stands for > 20% degradation)
Assay (Area %), degradation symbol ([7]; pH 7.4, 25° C., 6 days): — ((—) stands for > 20% degradation)
Assay (Area %) ([7]; pH 7.4, 25° C., Initial): 88.15 Area %
Assay (Area %), degradation symbol ([7]; pH 7.4, 25° C., last column without time heading): — ((—) stands for > 20% degradation)
Assay (Area %) ([7]; pH 7.4, 40° C., 1 day): 8.22 Area %
Assay (Area %), degradation symbol ([7]; pH 7.4, 40° C., 2 days): — ((—) stands for > 20% degradation)
Assay (Area %), degradation symbol ([7]; pH 7.4, 40° C., 6 days): — ((—) stands for > 20% degradation)
Assay (Area %) ([7]; pH 7.4, 40° C., Initial): 88.15 Area %
Assay (Area %), degradation symbol [7, 9]: — ((—) stands for > 20% degradation)

CN1C(=N)N[C@](C)(c2c(F)ccc(NC(=O)c3ccc(F)cn3)c2F)CC1=O [Iminopyrimidinone 173]
change in vivo at 10 mg/kg [1]: -3%
efflux ratio at 2 h [3]: 6.1
Papp A→B at 2 h [6]: 25 nm/s
